Measured values as given in patent US9738634B2, “Heterocyclic amide compound and herbicide” (SYNGENTA PARTICIPATIONS AG, priority 2013, dated 2017).

Experiments:
Format in all cases: in vivo
soybean [1] = experiment: Test Example 4: foliar treatment, effect on crop; d: soybean; conditions: treatment dosage 315 g/ha
Summary of the method: (§1)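 Seeds are spot-sown into sterilized diluvial soil and covered with about 1.5 cm of soil. After 14 days' greenhouse growth at 25 to 30° C, plants are sprayed on stems and leaves with diluted emulsion at the stated g/ha rate, then scored at 3 weeks.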

corn [2] = experiment: Test Example 4: foliar treatment, effect on crop; c: corn; conditions: treatment dosage 315 g/ha
Summary of the method: as §1

transplanted rice = experiment: Test Example 1: preemergent weed treatment in the submerged state, effect on crop; a: transplanted rice; conditions: treatment dosage 252 g/ha
Summary of the method: (§2)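 Alluvial soil in Wagner pots flooded to 4 cm; barnyard grass, bulrush and oval-leafed pondweed seeds sown, then 2.5-leaf rice seedlings transplanted. Same day, emulsified compound diluted in water to set g/ha dosages and applied to water surface; greenhouse 25–30 °C, effect scored by criteria after 3 weeks.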

redroot pigweed [3] = experiment: Test Example 3: weedkilling efficacy through soil treatment; L: redroot pigweed; conditions: treatment dosage 315 g/ha
Summary of the method: (§3)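 Crop and weed responses were judged three weeks after a uniform surface spray of the water-diluted emulsion at the given g/ha rate. Seeds sat beneath about 1.5 cm of sterilized diluvial soil, and boxes stood in a greenhouse at 25 to 30° C.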

crabgrass [4] = experiment: Test Example 3: weedkilling efficacy through soil treatment; D: crabgrass; conditions: treatment dosage 315 g/ha
Summary of the method: as §3

bulrush [5] = experiment: Test Example 2: weedkilling efficacy, growth period weed treatment in the submerged state; B: bulrush; conditions: treatment dosage 252 g/ha
Summary of the method: (§4)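 First, alluvial soil in pots is flooded to 4 cm and mixed seed is sown. Next, plants grow in a greenhouse at 25 to 30° C until the 1-2 leaf stage. Then diluted emulsion is applied onto the water surface at the given g/ha rate, and injury is assessed after 3 weeks.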

beet [6] = experiment: Test Example 3: soil treatment, effect on crop; f: beet; conditions: treatment dosage 315 g/ha
Summary of the method: as §3

birds-eye speedwell [7] = experiment: Test Example 3: weedkilling efficacy through soil treatment; p: birds-eye speedwell; conditions: treatment dosage 315 g/ha
Summary of the method: as §3

green foxtail [8] = experiment: Test Example 3: weedkilling efficacy through soil treatment; E: green foxtail; conditions: treatment dosage 315 g/ha
Summary of the method: as §3

crabgrass [9] = experiment: Test Example 4: weedkilling efficacy by foliar treatment; D: crabgrass; conditions: treatment dosage 315 g/ha
Summary of the method: as §1

Italian ryegrass [10] = experiment: Test Example 4: weedkilling efficacy by foliar treatment; I: Italian ryegrass; conditions: treatment dosage 315 g/ha
Summary of the method: as §1

wheat [11] = experiment: Test Example 4: foliar treatment, effect on crop; e: wheat; conditions: treatment dosage 315 g/ha
Summary of the method: as §1

fig-leafed goosefoot [12] = experiment: Test Example 4: weedkilling efficacy by foliar treatment; M: fig-leafed goosefoot; conditions: treatment dosage 315 g/ha
Summary of the method: as §1

barnyard grass [13] = experiment: Test Example 1: weedkilling efficacy, preemergent weed treatment in the submerged state; A: barnyard grass; conditions: treatment dosage 252 g/ha
Summary of the method: as §2

Indian mallow [14] = experiment: Test Example 4: weedkilling efficacy by foliar treatment; K: Indian mallow; conditions: treatment dosage 315 g/ha
Summary of the method: as §1

directly sown rice [15] = experiment: Test Example 3: soil treatment, effect on crop; b: directly sown rice; conditions: treatment dosage 315 g/ha
Summary of the method: as §3

Italian ryegrass [16] = experiment: Test Example 3: weedkilling efficacy through soil treatment; I: Italian ryegrass; conditions: treatment dosage 315 g/ha
Summary of the method: as §3

corn [17] = experiment: Test Example 3: soil treatment, effect on crop; c: corn; conditions: treatment dosage 315 g/ha
Summary of the method: as §3

fig-leafed goosefoot [18] = experiment: Test Example 3: weedkilling efficacy through soil treatment; M: fig-leafed goosefoot; conditions: treatment dosage 315 g/ha
Summary of the method: as §3

soybean [19] = experiment: Test Example 3: soil treatment, effect on crop; d: soybean; conditions: treatment dosage 315 g/ha
Summary of the method: as §3

Indian mallow [20] = experiment: Test Example 3: weedkilling efficacy through soil treatment; K: Indian mallow; conditions: treatment dosage 315 g/ha
Summary of the method: as §3

catchweed = experiment: Test Example 4: weedkilling efficacy by foliar treatment; O: catchweed; conditions: treatment dosage 315 g/ha
Summary of the method: as §1

black-grass [21] = experiment: Test Example 4: weedkilling efficacy by foliar treatment; H: black-grass; conditions: treatment dosage 315 g/ha
Summary of the method: as §1

redroot pigweed [22] = experiment: Test Example 4: weedkilling efficacy by foliar treatment; L: redroot pigweed; conditions: treatment dosage 315 g/ha
Summary of the method: as §1

barnyard grass [23] = experiment: Test Example 2: weedkilling efficacy, growth period weed treatment in the submerged state; A: barnyard grass; conditions: treatment dosage 252 g/ha
Summary of the method: as §4

black-grass [24] = experiment: Test Example 3: weedkilling efficacy through soil treatment; H: black-grass; conditions: treatment dosage 315 g/ha
Summary of the method: as §3

oval-leafed pondweed [25] = experiment: Test Example 1: weedkilling efficacy, preemergent weed treatment in the submerged state; C: oval-leafed pondweed; conditions: treatment dosage 252 g/ha
Summary of the method: as §2

green foxtail [26] = experiment: Test Example 4: weedkilling efficacy by foliar treatment; E: green foxtail; conditions: treatment dosage 315 g/ha
Summary of the method: as §1

chickweed [27] = experiment: Test Example 4: weedkilling efficacy by foliar treatment; N: chickweed; conditions: treatment dosage 315 g/ha
Summary of the method: as §1

directly sown rice [28] = experiment: Test Example 4: foliar treatment, effect on crop; b: directly sown rice; conditions: treatment dosage 315 g/ha
Summary of the method: as §1

oval-leafed pondweed [29] = experiment: Test Example 2: weedkilling efficacy, growth period weed treatment in the submerged state; C: oval-leafed pondweed; conditions: treatment dosage 252 g/ha
Summary of the method: as §4

bulrush [30] = experiment: Test Example 1: weedkilling efficacy, preemergent weed treatment in the submerged state; B: bulrush; conditions: treatment dosage 252 g/ha
Summary of the method: as §2

birds-eye speedwell [31] = experiment: Test Example 4: weedkilling efficacy by foliar treatment; p: birds-eye speedwell; conditions: treatment dosage 315 g/ha
Summary of the method: as §1

beet [32] = experiment: Test Example 4: foliar treatment, effect on crop; f: beet; conditions: treatment dosage 315 g/ha
Summary of the method: as §1

wheat [33] = experiment: Test Example 3: soil treatment, effect on crop; e: wheat; conditions: treatment dosage 315 g/ha
Summary of the method: as §3

chickweed [34] = experiment: Test Example 3: weedkilling efficacy through soil treatment; N: chickweed; conditions: treatment dosage 315 g/ha
Summary of the method: as §3

CC1=C(c2ccccc2)C(=O)N(C(C)(C)C(=O)Nc2cccc(Br)n2)CO1 [B-2-31]
d (soybean) effect on crop grade (soybean [1]): 5 (weed kill ratio 90% or more, (practically complete withering)) | c (corn) effect on crop grade (corn [2]): 4 (weed kill ratio 70% or more, less than 90%) | a (transplanted rice) effect on crop grade (transplanted rice): 0 (weed kill ratio 5% or less (practically no effect)) | L (redroot pigweed) weedkilling efficacy grade (redroot pigweed [3]): 5 (weed kill ratio 90% or more, (practically complete withering)) | D (crabgrass) weedkilling efficacy grade (crabgrass [4]): 5 (weed kill ratio 90% or more, (practically complete withering)) | B (bulrush) weedkilling efficacy grade (bulrush [5]): 5 (weed kill ratio 90% or more, (practically complete withering)) | f (beet) effect on crop grade (beet [6]): 5 (weed kill ratio 90% or more, (practically complete withering)) | P (birds-eye speedwell) weedkilling efficacy grade (birds-eye speedwell [7]): 5 (weed kill ratio 90% or more, (practically complete withering)) | E (green foxtail) weedkilling efficacy grade (green foxtail [8]): 5 (weed kill ratio 90% or more, (practically complete withering)) | D (crabgrass) weedkilling efficacy grade (crabgrass [9]): 5 (weed kill ratio 90% or more, (practically complete withering)) | I (Italian ryegrass) weedkilling efficacy grade (Italian ryegrass [10]): 5 (weed kill ratio 90% or more, (practically complete withering)) | e (wheat) effect on crop grade (wheat [11]): 5 (weed kill ratio 90% or more, (practically complete withering)) | M (fig-leafed goosefoot) weedkilling efficacy grade (fig-leafed goosefoot [12]): 4 (weed kill ratio 70% or more, less than 90%) | A (barnyard grass) weedkilling efficacy grade (barnyard grass [13]): 5 (weed kill ratio 90% or more, (practically complete withering)) | K (Indian mallow) weedkilling efficacy grade (Indian mallow [14]): 5 (weed kill ratio 90% or more, (practically complete withering)) | b (directly sown rice) effect on crop grade (directly sown rice [15]): 5 (weed kill ratio 90% or more, (practically complete withering)) | I (Italian ryegrass) weedkilling efficacy grade (Italian ryegrass [16]): 5 (weed kill ratio 90% or more, (practically complete withering)) | c (corn) effect on crop grade (corn [17]): 0 (weed kill ratio 5% or less (practically no effect)) | M (fig-leafed goosefoot) weedkilling efficacy grade (fig-leafed goosefoot [18]): 4 (weed kill ratio 70% or more, less than 90%) | d (soybean) effect on crop grade (soybean [19]): 0 (weed kill ratio 5% or less (practically no effect)) | K (Indian mallow) weedkilling efficacy grade (Indian mallow [20]): 0 (weed kill ratio 5% or less (practically no effect)) | O (catchweed) weedkilling efficacy grade (catchweed): 3 (weed kill ratio 40% or more, less than 70%) | H (black-grass) weedkilling efficacy grade (black-grass [21]): 5 (weed kill ratio 90% or more, (practically complete withering)) | L (redroot pigweed) weedkilling efficacy grade (redroot pigweed [22]): 5 (weed kill ratio 90% or more, (practically complete withering)) | A (barnyard grass) weedkilling efficacy grade (barnyard grass [23]): 5 (weed kill ratio 90% or more, (practically complete withering)) | H (black-grass) weedkilling efficacy grade (black-grass [24]): 5 (weed kill ratio 90% or more, (practically complete withering)) | C (oval-leafed pondweed) weedkilling efficacy grade (oval-leafed pondweed [25]): 5 (weed kill ratio 90% or more, (practically complete withering)) | E (green foxtail) weedkilling efficacy grade (green foxtail [26]): 5 (weed kill ratio 90% or more, (practically complete withering)) | N (chickweed) weedkilling efficacy grade (chickweed [27]): 5 (weed kill ratio 90% or more, (practically complete withering)) | b (directly sown rice) effect on crop grade (directly sown rice [28]): 5 (weed kill ratio 90% or more, (practically complete withering)) | C (oval-leafed pondweed) weedkilling efficacy grade (oval-leafed pondweed [29]): 0 (weed kill ratio 5% or less (practically no effect)) | B (bulrush) weedkilling efficacy grade (bulrush [30]): 5 (weed kill ratio 90% or more, (practically complete withering)) | P (birds-eye speedwell) weedkilling efficacy grade (birds-eye speedwell [31]): 4 (weed kill ratio 70% or more, less than 90%) | f (beet) effect on crop grade (beet [32]): 4 (weed kill ratio 70% or more, less than 90%) | e (wheat) effect on crop grade (wheat [33]): 5 (weed kill ratio 90% or more, (practically complete withering)) | N (chickweed) weedkilling efficacy grade (chickweed [34]): 5 (weed kill ratio 90% or more, (practically complete withering))
